# Experimental data reported in US20060049052A1, “Ampholytic buffer having high buffering capacity and high conductivity in isoelectric form” (The Texas A&M University System, priority 2004, published 2006).
# Where a name gives a salt, the structure may show the parent alone.
# Columns and labels:
# [1] = pH of concentrated aqueous solution of the isoelectric buffer after desalting in IET apparatus (equal to pI); format: physicochemical; settings: isoelectric state after IET desalting
# Excerpt: The aqueous solution was desalted and the ampholytic buffer brought to isoelectric state in an IET apparatus. The pH of the concentrated aqueous solution of isoelectric BCPDEAH was 3.8, equal to its pI value. After liophylization, the solid product was characterized by ^1H- and ^13C-NMR. […] The identity and purity of the final product were further confirmed by high resolution ESI-MS. Only signals corresponding to BCPDEAH and its fragment ions are seen.
# [2] = Conductivity, pH and buffering capacity of 50 mM solutions of ampholytic buffers; format: physicochemical; settings: 50 mM solution
# Description: The conductivities, pH values and buffering capacities of 50 mM solutions of some of the ampholytic buffers of the present invention are listed in Table 1. For comparison purposes, values for histidine (HIS), a widely used low conductivity ampholytic buffer are also included.
# [3] = indirect UV detection CE, bare fused silica capillary, 15 kV, T=25, UV 214 nm, BGEs of varied pH
# Description: Using a 26 :m I.D. bare fused silica capillary, Lt=26.1 cm, Ld=19.7 cm at 15 kV in positive to negative polarity, T=25 EC, UV detector set at 214 nm, conventional CE was carried out in 20 mM tris(hydroxymethyl) aminomethane (Tris) and 20 mM benzylamine BGEs titrated with pTSA.
# Using a 26 :m I.D. bare fused silica capillary, Lt=26.1 cm, Ld=19.7 cm at 15 kV in positive to negative polarity, T=25 EC, and the UV detector set at 214 nm, conventional CE was carried out in 20 mM acetic acid BGEs titrated with imidazole and 20 mM pyridine BGEs titrated with pTSA.
SMILES,"pH of the concentrated aqueous solution of isoelectric form, equal to its pI value [1]",Buffering capacity [2],Conductivity [2],pH [2],pI [3]
"CC[N+](CC)(CCCC(=O)[O-])CCCC(=O)O [BCPDEAH, N,N-bis(carboxypropyl)diethyl ammonium hydroxide, inner salt]",3.8,35.7 mM/pH,18.4 mS/m,4.15,
"O=S(=O)(O)OC(CN1CCOCC1)CN1CCOCC1 [DMSP, 1,3-dimorpholino-2-O-sulfo-propane]",,14.7 mM/pH,7.3 mS/m,5.79,5.8
"CN(C)CC(CN(C)C)OS(=O)(=O)O [BDASP, 1,3-bis(N,N-dimethylamino)-2-O-sulfo-propane]",,25.0 mM/pH,25.8 mS/m,7.82,~8.0
"CCCN(CCC)CC(CN(CCC)CCC)OS(=O)(=O)O [BDPSP, 1,3-bis(dipropylamino)-2-O-sulfo-propane]",,,,,8.7
"O=S(=O)(O)OC(CN1CCCCC1)CN1CCCCC1 [DPSP, 1,3-dipiperidino-2-O-sulfo-propane]",,20.8 mM/pH,18.1 mS/m,8.35,8.9
"N[C@@H](Cc1c[nH]cn1)C(=O)O [HIS, histidine, reference compound]",,12.5 mM/pH,3.5 mS/m,7.44,
